Test results reported in US7776903B2, “Pharmaceutical preparations containing substituted 2,5-diaminomethyl-1H-pyrroles” (priority 2002, dated 2010).
Where two headings read alike, the source gives them in different places.

Assays:
human μ opiate receptor = human μ opiate receptor (Homo sapiens, UniProt P35372); experiment: Human μ opiate receptor binding assay with [3H]-naloxone, CHO-K1 membrane preparation; conditions: for inhibition at 1 µM: read-out: Human ORm Nal inhibition [%]
Description: b) Method for Determining Affinity for the Human μ opiate receptor
Receptor affinity for the human μ opiate receptor is determined in a homogeneous batch in microtitre plates. To this end, dilution series of the particular substituted 2,5-diaminomethyl-1H-pyrrole to be tested were incubated at room temperature for 90 minutes in a total volume of 250 μl with a receptor membrane preparation (15-40 μg of protein per 250 μl of incubation batch) of CHO-K1 cells, which express the human μ opiate receptor (RB-HOM receptor membrane preparation from NEN, Zaventem, Belgium) in the presence of 1 nmol/l of the radioactive ligand [^3H]-naloxone (NET719, from NEN, Zaventem, Belgium) and of 1 mg of WGA-SPA beads (wheat germ agglutinin SPA beads from Amersham/Pharmacia, Freiburg, Germany). The incubation buffer used is 50 mmol/l tris-HCl supplemented with 0.05 wt. % of sodium azide and with 0.06 wt. % of bovine serum albumin. 25 μmol/l of naloxone were additionally added to determine nonspecific binding. Once the ninety minute incubation time had elapsed, the microtitre plates were centrifuged off for 20 minutes at 1000 g and the radioactivity measured in a β-Counter (Microbeta-Trilux, from PerkinElmer Wallac, Freiburg, Germany. The percentage displacement of the radioactive ligand from its binding to the human μ opiate receptor was determined at a concentration of the substances to be tested of 1 μmol/l and stated as percentage inhibition of specific binding. On the basis of the percentage displacement by different concentrations of the compounds to be tested of the general formula I, IC50 inhibition concentrations which bring about 50% displacement of the radioactive ligand were calculated. Ki values for the test substances were obtained by conversion using the Cheng-Prusoff equation.

5-HT uptake = target: T1, 5-HT uptake (Rattus norvegicus, UniProt P31652); experiment: 5-HT uptake inhibition in rat brain synaptosomes (medulla and pons); type: biochemical; conditions: conc. 10 (unit not given), [3H]-5-HT, 5 minutes
T1 construct: Synaptosomes from rat brain regions were freshly isolated; from tissue; host or cells: rat brain synaptosomes (medulla and pons)
T1 sequence (P31652 whole entry): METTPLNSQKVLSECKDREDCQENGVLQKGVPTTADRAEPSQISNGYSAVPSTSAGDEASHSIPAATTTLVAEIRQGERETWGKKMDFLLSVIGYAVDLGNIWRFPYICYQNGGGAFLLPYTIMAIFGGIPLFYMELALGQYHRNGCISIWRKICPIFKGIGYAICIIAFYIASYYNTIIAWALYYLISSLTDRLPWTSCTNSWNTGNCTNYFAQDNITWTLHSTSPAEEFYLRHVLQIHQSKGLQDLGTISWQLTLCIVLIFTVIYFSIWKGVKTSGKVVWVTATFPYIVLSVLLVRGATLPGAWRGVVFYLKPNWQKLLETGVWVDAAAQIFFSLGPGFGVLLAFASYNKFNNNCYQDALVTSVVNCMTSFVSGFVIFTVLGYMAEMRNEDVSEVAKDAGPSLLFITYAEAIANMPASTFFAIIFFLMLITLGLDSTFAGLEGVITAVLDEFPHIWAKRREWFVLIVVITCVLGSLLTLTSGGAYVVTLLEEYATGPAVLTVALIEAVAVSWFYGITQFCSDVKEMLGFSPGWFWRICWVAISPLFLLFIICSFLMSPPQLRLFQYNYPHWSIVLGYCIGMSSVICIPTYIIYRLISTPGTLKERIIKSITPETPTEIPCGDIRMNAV
Text: (§1) c) Method for Determining Noradrenalin and the 5-HT Uptake Inhibition:
(§2) Synaptosomes from rat brain regions were freshly isolated for in vitro studies, as described in the publication “The isolation of nerve endings from brain” by E. G. Gray and V. P. Whittaker, J. Anatomy 96, pages 79-88, 1962. The corresponding literature description is hereby introduced as a reference and is deemed to be part of the disclosure.
(§3) The tissue (hypothalamus for the determination of noradrenalin uptake inhibition and medulla and pons for the determination of 5-HT uptake inhibition) was homogenised in ice-cooled 0.32 M sucrose (100 mg of tissue/1 mL) in a glass homogeniser with teflon pestle using five complete up and down strokes at 840 revolutions/minute.
(§4) The homogenate was centrifuged at 4° C. for 10 minutes at 1000 g. After subsequent centrifugation at 17000 g for 55 minutes, the synaptosomes (P2 fraction) were obtained, which were resuspended in 0.32 M glucose (0.5 mL/100 mg of original weight).
(§5) The particular uptake was measured in a 96-well microtitre plate. The volume was 250 μl and the incubation proceeded at room temperature (approx. 20-25° C.) under an O2 atmosphere.
(§6) The incubation time was 7.5 minutes for [^3H]-NA and 5 minutes for [^3H]-5-HT. The 96 samples were then filtered through a Unifilter GF/B® microtitre plate (Packard) and washed with […] of incubated buffer using a “Brabdel MPXR1-96T Cell-Harvester”. The Unifilter GF/B plate was dried for 1 hour at 55° C. The plate was then sealed with a Back seal® (Packard) and 35 μl of scintillation fluid were added per well (Ultima gold®, Packard). After sealing with a top seal® (Packard) and establishment of equilibrium (around 5 hours), radioactivity was determined in a “Trilux 1450 Microbeta” (Wallac).
(§7) The quantity of protein used in the above determination corresponded to the values known from the literature, as for example described in “Protein measurement with the folin phenol reagent”, Lowry et al., J. Biol. Chem., 193, 265-275, 1951. A detailed description of the method may also be found in the literature, for example in M. Ch. Frink, H.-H. Hennies, W. Engelberger, M. Haurand and B. Wilffert (1996) Arzneim.-Forsch./Drug Res. 46 (III), 11, 1029-1036. The corresponding literature descriptions are hereby introduced as a reference and are deemed to be part of the disclosure.

NA transporter = target: T2, NA transporter (Rattus norvegicus, UniProt Q63380); experiment: Noradrenalin uptake inhibition in rat brain synaptosomes (hypothalamus); type: biochemical; conditions: conc. 10 (unit not given), [3H]-NA, 7.5 minutes
T2 construct: Synaptosomes from rat brain regions were freshly isolated; from tissue; host or cells: rat brain synaptosomes (hypothalamus)
T2 sequence (Q63380 1-617): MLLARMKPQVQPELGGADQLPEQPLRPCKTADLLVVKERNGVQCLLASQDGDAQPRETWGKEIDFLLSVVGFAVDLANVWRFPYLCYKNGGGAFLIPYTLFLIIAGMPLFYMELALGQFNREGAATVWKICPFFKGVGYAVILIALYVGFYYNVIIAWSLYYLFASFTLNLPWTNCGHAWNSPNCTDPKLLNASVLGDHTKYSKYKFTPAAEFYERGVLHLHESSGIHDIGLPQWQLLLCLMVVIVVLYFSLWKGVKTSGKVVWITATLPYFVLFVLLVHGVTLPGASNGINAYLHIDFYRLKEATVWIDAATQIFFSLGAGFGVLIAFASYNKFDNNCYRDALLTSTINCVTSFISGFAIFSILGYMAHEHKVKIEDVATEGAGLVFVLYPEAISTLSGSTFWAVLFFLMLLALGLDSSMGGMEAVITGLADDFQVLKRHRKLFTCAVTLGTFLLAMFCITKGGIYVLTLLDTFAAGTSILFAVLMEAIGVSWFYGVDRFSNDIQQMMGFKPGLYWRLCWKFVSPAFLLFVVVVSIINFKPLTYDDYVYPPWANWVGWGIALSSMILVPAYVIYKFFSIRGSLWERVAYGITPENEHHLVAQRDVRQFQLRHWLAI
Text: as §1, §2, §3, §4, §5, §6
The following characteristics were determined for the NA transporter: NA uptake: Km=0.32±0.11 μM
as §7

ORL-1 receptor = target: T3, ORL-1 receptor (Homo sapiens, UniProt P41146); experiment: ORL-1 receptor binding assay with 3H-nociceptin/Orphanin FQ, membranes of recombinant CHO-ORL1 cells; conditions: 3H-nociceptin/Orphanin FQ 0.5 nM
T3 construct: expressed in transfected cells; host or cells: CHO (CHO-ORL1)
T3 sequence (P41146 whole entry): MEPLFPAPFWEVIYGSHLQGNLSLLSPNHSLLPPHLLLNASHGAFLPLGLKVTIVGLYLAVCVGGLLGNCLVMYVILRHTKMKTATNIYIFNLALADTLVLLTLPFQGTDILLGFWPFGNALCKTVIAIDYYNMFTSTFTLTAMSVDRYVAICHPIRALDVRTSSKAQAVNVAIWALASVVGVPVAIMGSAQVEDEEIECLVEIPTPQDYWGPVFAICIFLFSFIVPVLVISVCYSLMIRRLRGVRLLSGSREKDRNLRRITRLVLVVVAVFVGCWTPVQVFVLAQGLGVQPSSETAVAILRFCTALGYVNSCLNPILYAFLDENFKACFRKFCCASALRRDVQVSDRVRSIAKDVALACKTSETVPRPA
Description: a) Method for Determining Affinity for the ORL-1 Receptor
The affinity of the particular substituted 2,5-diaminomethyl-1H-pyrrole of the general formula I for the ORL-1 receptor was determined in a receptor binding assay with ^3H-nociceptin/Orphanin FQ with membranes of recombinant CHO-ORL1 cells, as described by Ardati et al. in Mol. Pharmacol., 51, 1997, pages 816-824. The corresponding literature description is hereby introduced as a reference and is deemed to be part of the disclosure.
The concentration of ^3H-nociceptin/Orphanin FQ in these tests was 0.5 nM. The binding assays were in each case performed with 20 μg of membrane protein per 200 μl batch in 50 mM Hepes, pH 7.4, 10 mM MgCl2 and 1 mM EDTA. Binding to the ORL1 receptor was determined using 1 mg portions of WGA-SPA Beads (Amersham-Pharmacia, Freiburg, Germany), by one hour's incubation of the batch at room temperature (approx. 20-25° C.) and subsequent measurement in a Trilux scintillation counter (Wallac, Finland).

[1] = [3H]-naloxone, from IC50 by Cheng-Prusoff equation, read-out: Human ORm Nal Ki

Chain of human μ opiate receptor (P35372 whole entry): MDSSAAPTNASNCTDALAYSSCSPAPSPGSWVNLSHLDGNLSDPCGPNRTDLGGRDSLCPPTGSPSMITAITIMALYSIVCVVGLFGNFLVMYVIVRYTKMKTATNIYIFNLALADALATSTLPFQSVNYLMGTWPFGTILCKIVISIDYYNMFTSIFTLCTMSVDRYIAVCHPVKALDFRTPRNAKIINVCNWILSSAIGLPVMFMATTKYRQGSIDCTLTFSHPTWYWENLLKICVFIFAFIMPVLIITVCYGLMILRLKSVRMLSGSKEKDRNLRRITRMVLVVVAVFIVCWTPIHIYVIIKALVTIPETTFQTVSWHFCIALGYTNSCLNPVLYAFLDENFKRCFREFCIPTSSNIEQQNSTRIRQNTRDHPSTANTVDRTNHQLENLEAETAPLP

| SMILES | Ki (human μ opiate receptor) | inhibition at 1 µM (human μ opiate receptor) | Rat 5-HT uptake inhibition [%] conc. 10 (5-HT uptake) | Rat noradrenalin uptake inhibition [%], conc. 10 (NA transporter) | Ki (ORL-1 receptor) | Human ORL1 inhibition [%] (ORL-1 receptor; test concentration not given) | Ki (human μ opiate receptor; [1]) |
| --- | --- | --- | --- | --- | --- | --- | --- |
| CCOC(=O)C(c1ccc(CN(CC)CC)n1C)N1CCOCC1.Cl.Cl (stereo not shown) [Example 10, (5-Diethylaminomethyl-1-methyl-1H-pyrrol-2-yl)-morpholin-4-yl-acetic acid ethyl ester dihydrochloride] | 0.07 µM | 84% | 28% | – | – | – | – |
| Cc1ccccc1C(c1ccc(CN2CCCCC2)n1C)N(C)C.Cl.Cl (stereo not shown) [Example 3, Dimethyl-[(1-methyl-5-piperidin-1-ylmethyl-1H-pyrrol-2-yl)-o-tolyl-methyl]-amine dihydrochloride] | – | – | 30% | – | – | – | – |
| CCN(CC)Cc1ccc(C(c2ccccc2)N(C)C)n1C.Cl.Cl (stereo not shown) [Example 7, [5-(Dimethylamino-phenyl-methyl)-1-methyl-1H-pyrrol-2-ylmethyl]-diethyl-amine dihydrochloride] | – | 50% | 44% | 52% | 0.42 µM | 42% | – |
| COc1ccccc1C(c1ccc(CN2CCCCC2)n1C)N(C)C.Cl.Cl (stereo not shown) [Example 1, [(2-Methoxyphenyl)-(1-methyl-5-piperidin-1-ylmethyl-1H-pyrrol-2-yl)-methyl]-dimethyl-amine dihydrochloride] | – | – | 77% | 63% | – | – | – |
| CN(C)C(c1ccc(Br)cc1)c1ccc(CN2CCCCC2)n1C.Cl.Cl (stereo not shown) [Example 5, [(4-Bromo-phenyl)-(1-methyl-5-piperidin-1-ylmethyl-1H-pyrrol-2-yl)-methyl]-dimethyl-amine dihydrochloride] | – | 52% | 39% | 91% | – | – | 0.86 µM |
| CN(C)C(c1ccc(F)cc1)c1ccc(CN2CCOCC2)n1C.Cl.Cl (stereo not shown) [Example 6, [(4-Fluoro-phenyl)-(1-methyl-5-morpholin-4-ylmethyl-1H-pyrrol-2-yl)-methyl]-dimethyl-amine dihydrochloride] | – | 21% | 53% | 42% | – | – | 0.5 µM |
| COc1ccccc1C(c1ccc(CN2CCCC2)n1C)N(C)C.Cl.Cl (stereo not shown) [Example 2, [(2-Methoxyphenyl)-(1-methyl-5-pyrrolidin-1-ylmethyl-1H-pyrrol-2-yl)-methyl]-dimethyl-amine dihydrochloride] | – | 25% | 76% | 65% | – | – | – |
| CN(C)C(c1ccccc1Br)c1ccc(CN2CCCCC2)n1C.Cl.Cl (stereo not shown) [Example 4, [(2-Bromo-phenyl)-(1-methyl-5-piperidin-1-ylmethyl-1H-pyrrol-2-yl)-methyl]-dimethyl-amine dihydrochloride] | – | – | 57% | – | – | – | – |
| CCOC(=O)C(c1ccc(CN2CCOCC2)n1C)N1CCCC1.Cl.Cl (stereo not shown) [Example 13, (1-Methyl-5-morpholin-4-ylmethyl-1H-pyrrol-2-yl)-pyrrolidin-1-yl-acetic acid ethyl ester dihydrochloride] | – | – | 28% | – | – | – | – |
| CCOC(=O)C(c1ccc(CN2CCCCC2)n1C)N1CCCCC1 (stereo not shown) [Example 8, (1-Methyl-5-piperidin-1-ylmethyl-1H-pyrrol-2-yl)-piperidin-1-yl-acetic acid ethyl ester drochloride] | – | 69% | – | 33% | – | – | 0.22 µM |
| CCOC(=O)C(c1ccc(CN2CCCCC2)n1C)N1CCOCC1.Cl.Cl (stereo not shown) [Example 9, (1-Methyl-5-piperidin-1-ylmethyl-1H-pyrrol-2-yl)-morpholin-4-yl-acetic acid ethyl eastr dihydrochloride] | – | – | 26% | – | – | – | – |
